This note sets out measurements from US12061201B2, “Fluorescent probes for the visualization of FtsZ in gram-positive and gram-negative bacterial pathogens” (Rutgers, The State University of New Jersey, priority 2019, dated 2024).

Assay [1] has as its system FtsZ in K. pneumoniae ATCC 13883 cells. Description: Fluorescence microscopy FtsZ visualization in live cells. The class given is cell-based. As to the method: (§1) Fluorescence microscopy assay for visualizing FtsZ and monitoring cell division in live Gram-positive and Gram-negative bacterial cells using BOFP. All fluorescence microscopy experiments were conducted using an Olympus BX50 microscope equipped with an X-cite Exacte 200W mercury lamp, a 100× Olympus UPLSAPO oil immersion objective (1.40 aperture), and a Chroma ET-EGFP (FITC/Cy2) filter. Images were captured using a QImaging Retiga R3 charge-coupled device (CCD) camera and the Ocular-Version 2.0 software package (QImaging).
(§2) For visualizing FtsZ in Gram-negative bacteria using BOFP, E. coli ATCC 25922, K. pneumoniae ATCC 13883, P. aeruginosa ATCC 27853, and A. baumannii ATCC 19606 were grown to log-phase in CAMH broth. For each Gram-negative bacterial strain, a total of 1 mL of cell culture was centrifuged at 15,000×g for 1 minute and washed twice with 1 mL of Tris-buffered saline (TBS) composed of 50 mM Tris-HCl pH 7.6 and 150 mM NaCl. […] The resuspended cells were then incubated in the dark for 5 minutes at room temperature, centrifuged at 15,000×g for 1 minute, washed twice with 1 mL of TBS, and subsequently resuspended in 200 μL of TBS. This final cell suspension was then prepared for microscopy as described above for the Gram-positive bacterial strains.

Assay [2] deals with T1, FtsZ in E. coli ATCC 25922 cells (Escherichia coli, UniProt P0A9A6).
T1 construct: endogenous in cells; host or cells: E. coli ATCC 25922
Described as above. The class given is cell-based. The note with it: 1 μg/mL BOFP for 5 minutes, no pentamidine. On the procedure:
as §1, §2

Assay [3] relates to FtsZ in A. baumannii ATCC 19606 cells. The description is as above. The note with it: 1 μg/mL BOFP for 5 minutes, no pentamidine. The class given is cell-based. On the procedure: as §1, §2
The target in assay [4] is T2, FtsZ in P. aeruginosa ATCC 27853 cells (Pseudomonas aeruginosa, UniProt P47204).
T2 construct: endogenous in cells; host or cells: P. aeruginosa ATCC 27853
T2 sequence (P47204 1-394): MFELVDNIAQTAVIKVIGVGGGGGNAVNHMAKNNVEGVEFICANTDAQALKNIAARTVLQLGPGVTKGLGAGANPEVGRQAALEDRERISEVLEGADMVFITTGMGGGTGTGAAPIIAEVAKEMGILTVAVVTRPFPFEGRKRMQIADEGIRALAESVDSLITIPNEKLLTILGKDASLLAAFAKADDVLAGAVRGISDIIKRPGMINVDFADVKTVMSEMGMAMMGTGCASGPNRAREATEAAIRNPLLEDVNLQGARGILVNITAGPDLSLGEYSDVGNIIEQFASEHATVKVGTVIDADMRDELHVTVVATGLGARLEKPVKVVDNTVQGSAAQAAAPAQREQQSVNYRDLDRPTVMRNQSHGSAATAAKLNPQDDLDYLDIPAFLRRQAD
The assay is described as above. The assay is classed as cell-based. The note with it: 1 μg/mL BOFP for 5 minutes, no pentamidine. As to the method:
as §1, §2

For assay [5], the system named is FtsZ in E. faecium ATCC 19434 cells. Described as above. The note with it: 1 μg/mL (1.3 μM) BOFP, 5 minutes. The assay is classed as cell-based. On the procedure:
as §1
(§3) For visualizing FtsZ in Gram-positive bacteria using BOFP, the bacterial cells were grown to log-phase in media suitable for each individual pathogen. Specifically, S. aureus NRS705 was grown in tryptic soy broth (TSB), E. faecalis ATCC 29212 and E. faecium ATCC 19434 were grown in lactobacilli MRS broth, S. agalactiae ATCC 12386 and S. pneumoniae ATCC 49619 were grown in TH broth, and S. pyogenes ATCC 19615 was grown in CAMH broth supplemented with 3% (v/v) LHB. For each Gram-positive bacterial strain, a total of 1 mL of cell culture was centrifuged at 15,000×g for 1 minute and washed 2-3 times with 1 mL of PBS. After the final wash, the pelleted cells were resuspended in 500 μL of PBS containing 1 μg/mL of BOFP and incubated in the dark for 5 minutes at room temperature. The cells were then centrifuged at 15,000×g for 1 minute, washed twice with 1 mL of PBS, and subsequently resuspended in 200 μL of PBS. 8 μL of this final cell suspension was then spread on a 0.25 mm layer of 1.5% high-resolution agarose (Sigma) in PBS, which was mounted on a standard 75×25×1 mm microscope slide (Azer Scientific) using a 1.7×2.8×0.025 cm Gene Frame (ThermoFisher). A 24×40 mm cover slip (Azer Scientific) was then applied to the agarose pad to prepare the slide for microscopic visualization.

Assay [6] concerns the target T3, FtsZ in S. aureus NRS705 cells (Staphylococcus aureus, UniProt P0A031).
T3 construct: endogenous in cells; host or cells: S. aureus NRS705
T3 sequence (P0A031 1-390): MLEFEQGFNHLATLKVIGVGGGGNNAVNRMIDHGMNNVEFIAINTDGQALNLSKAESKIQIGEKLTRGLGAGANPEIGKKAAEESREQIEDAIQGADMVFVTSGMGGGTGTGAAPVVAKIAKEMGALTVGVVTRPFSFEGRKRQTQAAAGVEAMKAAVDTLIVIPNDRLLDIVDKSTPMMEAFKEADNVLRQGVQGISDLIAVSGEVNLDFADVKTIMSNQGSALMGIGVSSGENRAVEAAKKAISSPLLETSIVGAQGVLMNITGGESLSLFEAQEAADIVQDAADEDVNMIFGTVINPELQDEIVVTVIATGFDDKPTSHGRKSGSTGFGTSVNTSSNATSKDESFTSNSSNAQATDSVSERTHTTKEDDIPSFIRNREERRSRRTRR
The assay is described as above. The assay is classed as cell-based. The note with it: 1 μg/mL (1.3 μM) BOFP, 5 minutes. On the procedure: as §1, §3

Assay [7] deals with FtsZ in S. pyogenes ATCC 19615 cells. Described as above. The class given is cell-based. The note with it: 1 μg/mL (1.3 μM) BOFP, 5 minutes. As to the method: as §1, §3
The test system of assay [8] is FtsZ in S. pneumoniae ATCC 49619 cells. The description is as above. The assay is classed as cell-based. The note with it: 1 μg/mL (1.3 μM) BOFP, 5 minutes. As to the method: as §1, §3
The target in assay [9] is T4, FtsZ in E. faecalis ATCC 29212 cells (Enterococcus faecalis, UniProt O08439).
T4 construct: endogenous in cells; host or cells: E. faecalis ATCC 29212
The assay is described as above. The class given is cell-based. The note with it: 1 μg/mL (1.3 μM) BOFP, 5 minutes. As to the method:
as §1, §3

The test system of assay [10] is FtsZ in S. agalactiae ATCC 12386 cells. The description is as above. The assay is classed as cell-based. The note with it: 1 μg/mL (1.3 μM) BOFP, 5 minutes. On the procedure:
as §1, §3

In another assay the target is T5, S. aureus FtsZ (SaFtsZ) (Staphylococcus aureus, UniProt P0A031).
T5 sequence (P0A031 1-390): T3 sequence (P0A031 1-390)
Description: Fluorescence anisotropy binding of BOFP to FtsZ. The note with it: 0.1 μM BOFP, 10 μM SaFtsZ, 37° C.

Entries after “also recorded” stand apart in the source; their conditions may differ.

T1 sequence (P0A9A6 whole entry): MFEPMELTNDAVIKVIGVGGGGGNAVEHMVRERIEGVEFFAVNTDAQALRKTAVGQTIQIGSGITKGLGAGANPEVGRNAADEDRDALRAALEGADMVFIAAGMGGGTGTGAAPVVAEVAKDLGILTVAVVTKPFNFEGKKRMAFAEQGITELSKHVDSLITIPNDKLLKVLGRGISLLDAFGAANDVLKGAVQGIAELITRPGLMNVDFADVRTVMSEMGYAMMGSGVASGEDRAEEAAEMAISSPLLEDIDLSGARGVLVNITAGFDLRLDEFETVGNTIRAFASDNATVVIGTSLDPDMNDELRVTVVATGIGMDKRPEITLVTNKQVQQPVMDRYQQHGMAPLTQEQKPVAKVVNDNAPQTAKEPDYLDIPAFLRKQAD
T4 sequence (O08439 whole entry): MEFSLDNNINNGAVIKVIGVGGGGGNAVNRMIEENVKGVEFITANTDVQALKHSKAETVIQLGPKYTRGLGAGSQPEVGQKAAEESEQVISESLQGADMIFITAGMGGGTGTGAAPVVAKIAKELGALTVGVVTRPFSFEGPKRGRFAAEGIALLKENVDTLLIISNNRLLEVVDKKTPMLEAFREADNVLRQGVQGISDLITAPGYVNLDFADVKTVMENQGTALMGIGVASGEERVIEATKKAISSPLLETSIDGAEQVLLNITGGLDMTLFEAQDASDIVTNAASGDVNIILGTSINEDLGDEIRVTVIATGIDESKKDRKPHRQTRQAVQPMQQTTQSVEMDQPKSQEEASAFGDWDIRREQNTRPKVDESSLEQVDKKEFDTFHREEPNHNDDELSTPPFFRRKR

Take `CC1=CC(C)=[N+]2C1=Cc1ccc(CCC(=O)OCC(Oc3ccc(F)c(C(N)=O)c3F)c3nc(-c4ccc(C(F)(F)F)cc4)c(Br)o3)n1[B-]2(F)F` (stereo not shown) [BOFP, 2-(5-bromo-4-(4-(trifluoromethyl)phenyl)-oxazol-2-yl)-2-(3-carbamoyl-2,4-difluorophenoxy)ethyl 3-(5,5-difluoro-7,9-dimethyl-5H-5λ^4,6λ^4-dipyrrolo[1,2-c:2′,1′-f][1,3,2]diazaborinin-3-yl)propanoate]: the “FtsZ labeling in live cells without pentamidine” value is “little or no FtsZ labeling” in [1] (1 μg/mL BOFP for 5 minutes, no pentamidine); “little or no FtsZ labeling” in assay [2]; “little or no FtsZ labeling” in assay [3]; “little or no FtsZ labeling” in assay [4]. For the same molecule, the “FtsZ labeling (fluorescence staining) in live cells” value in assay [1] (1 μg/mL BOFP with 3.5 mg/mL pentamidine isethionate, 5 minutes) was “bright fluorescence staining is visible both at midcell and along the cell periphery”; in assay [5], “bright bands of fluorescence staining were clearly visible at midcell”; in [6], “bright bands of fluorescence staining were clearly visible at midcell”; in assay [7], “bright bands of fluorescence staining were clearly visible at midcell”; in [8] it was “bright bands of fluorescence staining were clearly visible at midcell”; in assay [9] it was “bright bands of fluorescence staining were clearly visible at midcell”. For the same molecule, the “FtsZ labeling (fluorescence staining) in live cells” value in assay [10] is given as “bright bands of fluorescence staining were clearly visible at midcell”. Further, the “effect of both GMPCPP and MgCl2 on the anisotropy of SaFtsZ-bound BOFP” value on S. aureus FtsZ (SaFtsZ) (GMPCPP 0.1 mM and MgCl2 10 mM) is “modest increase in the anisotropy”. In addition, the “effect of GMPCPP alone or MgCl2 alone on the anisotropy of SaFtsZ-bound BOFP” value at S. aureus FtsZ (SaFtsZ) (GMPCPP 0.1 mM or MgCl2 10 mM) is recorded as “neither GMPCPP alone (at 0.1 mM) nor MgCl2 alone (at 10 mM) has a significant effect; also recorded: independent of either GTP or magnesium”.
